ChEMBL document CHEMBL1201862, “PubChem BioAssay data set” (2004)
Activity calls are given as the source filed them.

Legend:
[1] = target: DNA dC->dU-editing enzyme APOBEC-3A (Homo sapiens, UniProt P31941); assay: Dose Response confirmation of small molecule APOBEC3A DNA Deaminase Inhibitors via a fluorescence-based single-stranded DNA deaminase assay. [Related pubchem assays (depositor defined):AID493011, AID493024]; type: functional
[2] = target: DNA dC->dU-editing enzyme APOBEC-3G (Homo sapiens, UniProt Q9HC16); type: functional;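 also: Dose-response counterscreen measuring inhibition of APOBEC3G DNA deaminase activity, run while confirming APOBEC3A inhibitors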
Chain of DNA dC->dU-editing enzyme APOBEC-3G (Q9HC16 whole entry, the tested form may be a part): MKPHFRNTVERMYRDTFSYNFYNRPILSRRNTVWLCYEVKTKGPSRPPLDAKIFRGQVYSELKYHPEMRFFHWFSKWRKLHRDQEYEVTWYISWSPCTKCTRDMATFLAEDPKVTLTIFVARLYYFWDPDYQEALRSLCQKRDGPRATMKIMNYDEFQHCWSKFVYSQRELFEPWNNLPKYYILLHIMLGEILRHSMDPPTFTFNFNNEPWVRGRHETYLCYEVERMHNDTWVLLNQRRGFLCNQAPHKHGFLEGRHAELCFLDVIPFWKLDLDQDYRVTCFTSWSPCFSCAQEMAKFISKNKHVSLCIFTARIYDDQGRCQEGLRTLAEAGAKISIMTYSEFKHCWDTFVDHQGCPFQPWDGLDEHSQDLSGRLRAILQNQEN

[3] = target: T1, RNA-binding protein pos-1 (Caenorhabditis elegans, UniProt G5EF15); assay: disruptors of C. elegans POS-1 RNA interaction – biochemical, fluorescence polarization, dose response (AID 1964);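 also: purified POS-1 fused to maltose binding protein made in E. coli; potency of compounds blocking POS-1 binding to fluorescent RNA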
T1 sequence (G5EF15 whole entry): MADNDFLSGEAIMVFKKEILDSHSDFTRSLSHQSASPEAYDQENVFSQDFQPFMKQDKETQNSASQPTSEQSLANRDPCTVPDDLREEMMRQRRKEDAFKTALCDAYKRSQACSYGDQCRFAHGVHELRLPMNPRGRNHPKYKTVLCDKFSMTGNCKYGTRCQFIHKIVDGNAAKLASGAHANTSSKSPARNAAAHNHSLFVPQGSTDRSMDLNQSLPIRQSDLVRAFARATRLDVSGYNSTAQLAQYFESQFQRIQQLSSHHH

Bcl-2-like protein 10 = target: T2, Bcl-2-like protein 10 (Homo sapiens, UniProt Q9HD36); assay: Bcl-B/TR3 peptide binding disruption – biochemical, fluorescence polarization, FITC-TR3 peptide, selectivity assay for Bfl-1 inhibitor project, primary screen (AID 748);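 also: fluorescence polarization from a fluorescein-labelled TR3 peptide binding purified Bcl-B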
T2 sequence (Q9HD36 whole entry): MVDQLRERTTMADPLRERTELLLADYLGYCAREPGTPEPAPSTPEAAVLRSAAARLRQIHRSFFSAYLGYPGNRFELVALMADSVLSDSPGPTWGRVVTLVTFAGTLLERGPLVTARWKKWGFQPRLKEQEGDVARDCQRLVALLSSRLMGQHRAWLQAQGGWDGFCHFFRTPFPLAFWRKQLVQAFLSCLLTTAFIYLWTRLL

[4] = target: T3, Zinc finger protein mex-5 (Caenorhabditis elegans, UniProt Q9XUB2); assay: potency of MEX-5 RNA-binding blockers – biochemical, C. elegans, fluorescence polarization, dose response (AID 1960)
T3 sequence (Q9XUB2 whole entry): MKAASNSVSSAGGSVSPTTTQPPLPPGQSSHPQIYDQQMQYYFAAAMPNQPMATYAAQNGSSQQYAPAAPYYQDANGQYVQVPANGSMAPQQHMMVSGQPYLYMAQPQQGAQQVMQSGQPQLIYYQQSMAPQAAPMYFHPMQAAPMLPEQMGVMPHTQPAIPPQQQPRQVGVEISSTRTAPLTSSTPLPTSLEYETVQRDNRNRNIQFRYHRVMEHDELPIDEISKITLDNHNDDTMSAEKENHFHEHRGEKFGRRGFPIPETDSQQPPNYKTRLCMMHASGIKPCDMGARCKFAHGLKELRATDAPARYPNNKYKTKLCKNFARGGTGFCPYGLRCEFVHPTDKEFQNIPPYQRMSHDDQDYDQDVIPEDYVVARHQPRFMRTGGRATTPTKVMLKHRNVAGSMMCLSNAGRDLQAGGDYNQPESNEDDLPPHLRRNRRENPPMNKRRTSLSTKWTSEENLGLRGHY

Coagulation factor XII = target: T4, Coagulation factor XII (Homo sapiens, UniProt P00748); type: functional;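 also: activated factor XIIa alpha cleaving a fluorogenic AMC peptide substrate; inhibitor potency from loss of enzyme activity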
T4 sequence (P00748 whole entry): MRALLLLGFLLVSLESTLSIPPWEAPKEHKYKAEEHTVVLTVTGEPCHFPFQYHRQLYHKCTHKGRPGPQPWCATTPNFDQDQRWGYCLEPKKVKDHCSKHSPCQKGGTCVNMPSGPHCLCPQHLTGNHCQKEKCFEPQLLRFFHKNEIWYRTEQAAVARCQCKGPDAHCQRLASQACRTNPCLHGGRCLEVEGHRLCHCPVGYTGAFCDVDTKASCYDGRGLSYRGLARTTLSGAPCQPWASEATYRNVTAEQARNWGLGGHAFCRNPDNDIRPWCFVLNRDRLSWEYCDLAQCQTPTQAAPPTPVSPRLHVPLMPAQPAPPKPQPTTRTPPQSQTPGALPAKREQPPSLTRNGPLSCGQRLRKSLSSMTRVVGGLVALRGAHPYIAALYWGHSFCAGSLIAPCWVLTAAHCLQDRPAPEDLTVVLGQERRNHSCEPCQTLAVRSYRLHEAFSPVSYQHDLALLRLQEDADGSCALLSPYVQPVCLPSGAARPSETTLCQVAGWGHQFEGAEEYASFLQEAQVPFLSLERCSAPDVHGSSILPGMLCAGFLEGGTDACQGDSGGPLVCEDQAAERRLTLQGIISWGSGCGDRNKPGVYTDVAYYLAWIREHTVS

[5] = target: Intestinal-type alkaline phosphatase (Mus musculus, UniProt P24822); assay: PubChem AID 488875; type: functional
[6] = target: T5, Intestinal-type alkaline phosphatase (Homo sapiens, UniProt P09923); assay: human intestinal alkaline phosphatase activators, dose response, biochemical, luminescence, uHTS hits (AID 463120); type: functional
T5 sequence (P09923 whole entry): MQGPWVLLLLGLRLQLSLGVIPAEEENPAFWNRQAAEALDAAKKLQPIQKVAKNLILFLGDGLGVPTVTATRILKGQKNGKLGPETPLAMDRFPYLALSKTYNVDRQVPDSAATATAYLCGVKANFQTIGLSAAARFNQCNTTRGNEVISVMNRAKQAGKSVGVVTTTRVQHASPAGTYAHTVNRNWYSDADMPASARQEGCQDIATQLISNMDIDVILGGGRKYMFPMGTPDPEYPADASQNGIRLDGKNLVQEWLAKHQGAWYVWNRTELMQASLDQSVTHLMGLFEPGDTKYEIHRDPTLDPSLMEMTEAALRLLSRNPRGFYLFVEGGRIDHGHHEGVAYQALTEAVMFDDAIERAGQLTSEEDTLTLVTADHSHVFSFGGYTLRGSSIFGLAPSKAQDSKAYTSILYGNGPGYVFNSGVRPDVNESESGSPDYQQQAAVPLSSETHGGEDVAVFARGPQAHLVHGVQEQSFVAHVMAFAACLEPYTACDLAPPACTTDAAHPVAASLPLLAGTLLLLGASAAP

[7] = target: T5, Intestinal-type alkaline phosphatase; assay: activation of human intestinal alkaline phosphatase – biochemical, luminescent, uHTS hits, set 2, dose response (AID 488817); type: functional;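 also: potency of activators that raise enzyme activity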
[8] = target: T6, Alkaline phosphatase, tissue-nonspecific isozyme (Homo sapiens, UniProt P05186); assay: activation of tissue-nonspecific alkaline phosphatase – biochemical, TNAP isozyme, human IAP uHTS hits, selectivity assay for human IAP activator project, dose response (AID 488886); type: functional;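 also: potency of compounds raising TNAP activity as a selectivity check on IAP activators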
T6 sequence (P05186 whole entry): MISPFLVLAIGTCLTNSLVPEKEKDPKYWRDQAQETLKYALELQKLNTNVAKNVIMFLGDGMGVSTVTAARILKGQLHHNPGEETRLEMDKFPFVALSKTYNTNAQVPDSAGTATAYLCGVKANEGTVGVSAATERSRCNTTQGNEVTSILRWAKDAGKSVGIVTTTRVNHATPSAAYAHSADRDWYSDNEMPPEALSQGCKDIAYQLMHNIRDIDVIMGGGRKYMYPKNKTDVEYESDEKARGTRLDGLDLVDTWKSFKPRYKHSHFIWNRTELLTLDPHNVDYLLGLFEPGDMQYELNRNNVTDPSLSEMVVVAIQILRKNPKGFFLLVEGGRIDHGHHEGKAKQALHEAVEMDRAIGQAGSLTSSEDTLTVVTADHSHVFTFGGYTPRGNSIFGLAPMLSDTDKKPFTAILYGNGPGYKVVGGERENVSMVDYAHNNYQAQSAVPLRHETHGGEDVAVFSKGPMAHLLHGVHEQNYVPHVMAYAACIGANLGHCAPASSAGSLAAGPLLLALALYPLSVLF

[9] = viability of uninfected HEp-2 cells – cell-based, HTS, cytotoxicity control for RSV inhibitor project, dose response (AID 2410); type: functional; conditions: human respiratory syncytial virus
[10] = microbe, parasite or virus in culture; type: functional; conditions: Mycobacterium tuberculosis
[11] = THP-1 cell cytotoxicity, dose response, cytotoxicity control for non-replicating M. tuberculosis project (AID 489025); type: functional
[12] = HepG2 cell cytotoxicity, dose response, cytotoxicity control for non-replicating M. tuberculosis project (AID 489018); type: functional; conditions: Mycobacterium tuberculosis
cells = type: functional
[13] = target: T7, Rac GTPase-activating protein 1 (Homo sapiens, UniProt Q9H0H5); assay: blockers of MgcRacGAP-driven Rac1 GTP hydrolysis – biochemical, ADP Hunter fluorescence, primary and confirmatory, confirmation (AID 624330); type: functional
T7 sequence (Q9H0H5 whole entry): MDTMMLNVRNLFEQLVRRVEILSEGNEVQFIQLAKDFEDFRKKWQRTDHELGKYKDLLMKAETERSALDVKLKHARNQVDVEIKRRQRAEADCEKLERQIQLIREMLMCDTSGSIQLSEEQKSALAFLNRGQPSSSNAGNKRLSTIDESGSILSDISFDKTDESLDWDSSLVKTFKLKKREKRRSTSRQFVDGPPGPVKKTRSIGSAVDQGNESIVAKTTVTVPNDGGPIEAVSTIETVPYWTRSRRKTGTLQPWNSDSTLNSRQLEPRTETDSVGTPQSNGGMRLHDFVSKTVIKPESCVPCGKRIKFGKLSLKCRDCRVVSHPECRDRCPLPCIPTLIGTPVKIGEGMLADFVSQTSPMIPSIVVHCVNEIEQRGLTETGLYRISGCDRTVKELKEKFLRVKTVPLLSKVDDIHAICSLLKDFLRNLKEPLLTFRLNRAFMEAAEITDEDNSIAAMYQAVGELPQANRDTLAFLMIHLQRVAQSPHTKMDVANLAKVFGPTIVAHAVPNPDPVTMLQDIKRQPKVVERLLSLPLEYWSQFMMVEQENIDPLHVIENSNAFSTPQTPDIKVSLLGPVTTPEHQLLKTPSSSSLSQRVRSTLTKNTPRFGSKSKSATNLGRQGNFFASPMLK

Cytochrome P450 3A4 = Cytochrome P450 3A4 (Homo sapiens, UniProt P08684); conditions: Potency;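 also: confirmatory qHTS run detecting inhibitors and substrates of CYP3A4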
Chain of Cytochrome P450 3A4 (P08684 whole entry, the tested form may be a part): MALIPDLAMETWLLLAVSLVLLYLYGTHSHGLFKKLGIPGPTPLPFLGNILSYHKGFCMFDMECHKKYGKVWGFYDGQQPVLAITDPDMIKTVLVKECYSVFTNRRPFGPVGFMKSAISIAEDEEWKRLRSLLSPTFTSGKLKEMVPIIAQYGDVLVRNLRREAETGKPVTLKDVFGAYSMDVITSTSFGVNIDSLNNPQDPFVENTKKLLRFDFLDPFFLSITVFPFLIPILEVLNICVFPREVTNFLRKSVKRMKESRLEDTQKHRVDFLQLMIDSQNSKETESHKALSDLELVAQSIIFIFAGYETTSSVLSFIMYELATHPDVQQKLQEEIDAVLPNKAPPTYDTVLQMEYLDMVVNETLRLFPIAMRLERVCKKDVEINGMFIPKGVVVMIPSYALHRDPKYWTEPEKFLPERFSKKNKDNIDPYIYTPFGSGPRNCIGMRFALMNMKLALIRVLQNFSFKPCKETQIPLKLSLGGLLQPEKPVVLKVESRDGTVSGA

[14] = target: T8, Carboxy-terminal domain RNA polymerase II polypeptide A small phosphatase 1 (Homo sapiens, UniProt Q9GZU7); assay: CTDSP1 inhibitors, concentration-response, biochemical, absorbance readout, ultra-high-throughput screen actives (AID 540297); type: functional
T8 sequence (Q9GZU7 whole entry): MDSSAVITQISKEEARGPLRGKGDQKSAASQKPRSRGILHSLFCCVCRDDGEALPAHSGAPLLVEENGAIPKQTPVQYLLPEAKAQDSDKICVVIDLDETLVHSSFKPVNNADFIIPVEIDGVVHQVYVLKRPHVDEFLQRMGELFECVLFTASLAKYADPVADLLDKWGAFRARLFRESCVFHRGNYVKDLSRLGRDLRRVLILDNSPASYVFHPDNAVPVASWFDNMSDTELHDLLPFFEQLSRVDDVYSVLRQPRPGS

[15] = target: T9, Lysosomal acid glucosylceramidase (Homo sapiens, UniProt P04062); assay: Dose response cell-based high throughput screening assay to identify enhancers of beta-glucosidase activity. [Related pubchem assays: 784 ]; type: functional
T9 sequence (P04062 whole entry): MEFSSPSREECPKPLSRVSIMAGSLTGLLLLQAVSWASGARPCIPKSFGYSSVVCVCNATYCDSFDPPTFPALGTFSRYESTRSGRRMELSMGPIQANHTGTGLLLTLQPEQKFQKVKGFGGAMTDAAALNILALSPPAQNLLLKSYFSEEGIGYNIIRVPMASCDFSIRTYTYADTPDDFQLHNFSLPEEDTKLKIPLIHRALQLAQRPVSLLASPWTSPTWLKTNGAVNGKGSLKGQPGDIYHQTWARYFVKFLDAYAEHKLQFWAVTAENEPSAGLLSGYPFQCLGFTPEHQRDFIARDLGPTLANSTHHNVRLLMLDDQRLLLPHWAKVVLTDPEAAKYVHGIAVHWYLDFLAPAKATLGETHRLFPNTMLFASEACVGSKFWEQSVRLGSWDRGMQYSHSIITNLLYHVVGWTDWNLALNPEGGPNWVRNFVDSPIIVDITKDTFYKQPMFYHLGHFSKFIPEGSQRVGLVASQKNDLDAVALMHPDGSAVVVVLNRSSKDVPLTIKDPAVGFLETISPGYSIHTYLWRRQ

[16] = target: T10, Voltage-gated N-type calcium channel alpha-1B subunit/Amyloid beta A4 precursor protein-binding family A member 1 (Homo sapiens, UniProt Q00975+Q02410); type: protein assay
T10 sequence (Q00975 whole entry): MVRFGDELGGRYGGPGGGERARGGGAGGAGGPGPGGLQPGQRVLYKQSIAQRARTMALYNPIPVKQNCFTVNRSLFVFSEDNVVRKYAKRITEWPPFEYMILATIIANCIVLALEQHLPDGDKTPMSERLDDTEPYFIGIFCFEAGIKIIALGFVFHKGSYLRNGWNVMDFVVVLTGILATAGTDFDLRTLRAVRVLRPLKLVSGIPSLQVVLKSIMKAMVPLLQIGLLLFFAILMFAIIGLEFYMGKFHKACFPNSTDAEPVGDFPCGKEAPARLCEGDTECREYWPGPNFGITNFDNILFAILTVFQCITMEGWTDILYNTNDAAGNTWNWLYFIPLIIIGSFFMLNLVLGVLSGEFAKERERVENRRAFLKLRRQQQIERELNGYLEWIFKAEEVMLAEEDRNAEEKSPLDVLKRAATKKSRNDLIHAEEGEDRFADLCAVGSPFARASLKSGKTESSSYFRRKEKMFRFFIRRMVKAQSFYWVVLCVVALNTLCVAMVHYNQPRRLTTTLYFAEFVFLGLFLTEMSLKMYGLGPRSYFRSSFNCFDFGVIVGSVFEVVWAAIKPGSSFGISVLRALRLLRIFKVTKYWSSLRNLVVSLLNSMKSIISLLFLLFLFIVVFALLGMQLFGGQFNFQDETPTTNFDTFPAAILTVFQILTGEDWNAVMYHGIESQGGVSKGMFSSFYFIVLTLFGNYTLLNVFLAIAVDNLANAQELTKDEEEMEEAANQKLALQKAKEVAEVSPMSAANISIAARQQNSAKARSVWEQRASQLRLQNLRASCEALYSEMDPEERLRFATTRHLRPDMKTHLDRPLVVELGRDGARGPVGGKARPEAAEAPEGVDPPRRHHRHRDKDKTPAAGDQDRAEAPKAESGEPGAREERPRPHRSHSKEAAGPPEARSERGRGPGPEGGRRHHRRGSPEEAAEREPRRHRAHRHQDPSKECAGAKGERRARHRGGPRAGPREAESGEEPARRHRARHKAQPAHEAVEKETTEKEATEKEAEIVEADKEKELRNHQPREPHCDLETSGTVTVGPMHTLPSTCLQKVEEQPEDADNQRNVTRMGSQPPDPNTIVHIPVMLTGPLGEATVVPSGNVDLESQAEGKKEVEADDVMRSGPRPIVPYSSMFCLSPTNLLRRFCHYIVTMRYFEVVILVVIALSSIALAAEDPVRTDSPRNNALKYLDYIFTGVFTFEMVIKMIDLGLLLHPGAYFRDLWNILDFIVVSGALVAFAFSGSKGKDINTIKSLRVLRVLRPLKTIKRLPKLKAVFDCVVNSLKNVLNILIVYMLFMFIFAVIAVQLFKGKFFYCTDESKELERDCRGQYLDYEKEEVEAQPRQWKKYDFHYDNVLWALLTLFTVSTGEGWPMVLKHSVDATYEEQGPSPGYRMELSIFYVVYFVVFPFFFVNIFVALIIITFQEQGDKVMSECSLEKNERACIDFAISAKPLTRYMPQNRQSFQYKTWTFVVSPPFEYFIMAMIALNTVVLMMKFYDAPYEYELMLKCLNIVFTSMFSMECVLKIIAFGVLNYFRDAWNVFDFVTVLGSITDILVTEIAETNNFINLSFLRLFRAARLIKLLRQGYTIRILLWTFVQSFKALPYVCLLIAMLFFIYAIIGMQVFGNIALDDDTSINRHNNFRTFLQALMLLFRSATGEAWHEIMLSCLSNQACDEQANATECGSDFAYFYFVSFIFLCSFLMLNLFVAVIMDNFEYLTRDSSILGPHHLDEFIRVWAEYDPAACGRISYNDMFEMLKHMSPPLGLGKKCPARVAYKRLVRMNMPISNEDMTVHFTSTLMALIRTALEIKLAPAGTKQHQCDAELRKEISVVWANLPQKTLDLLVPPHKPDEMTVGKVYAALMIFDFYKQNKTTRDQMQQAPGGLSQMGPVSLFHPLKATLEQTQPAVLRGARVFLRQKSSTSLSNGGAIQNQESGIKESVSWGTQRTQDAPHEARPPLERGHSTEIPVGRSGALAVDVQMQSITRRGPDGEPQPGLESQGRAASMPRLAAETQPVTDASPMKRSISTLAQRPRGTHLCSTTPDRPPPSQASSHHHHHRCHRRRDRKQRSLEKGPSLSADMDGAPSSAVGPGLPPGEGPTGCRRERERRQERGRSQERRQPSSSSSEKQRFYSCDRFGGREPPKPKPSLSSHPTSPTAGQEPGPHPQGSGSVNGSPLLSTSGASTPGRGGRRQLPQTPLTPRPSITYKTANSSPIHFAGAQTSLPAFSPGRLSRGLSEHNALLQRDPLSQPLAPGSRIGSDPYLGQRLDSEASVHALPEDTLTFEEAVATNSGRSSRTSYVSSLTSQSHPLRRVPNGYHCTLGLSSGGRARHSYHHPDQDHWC
T10 sequence (Q02410 whole entry): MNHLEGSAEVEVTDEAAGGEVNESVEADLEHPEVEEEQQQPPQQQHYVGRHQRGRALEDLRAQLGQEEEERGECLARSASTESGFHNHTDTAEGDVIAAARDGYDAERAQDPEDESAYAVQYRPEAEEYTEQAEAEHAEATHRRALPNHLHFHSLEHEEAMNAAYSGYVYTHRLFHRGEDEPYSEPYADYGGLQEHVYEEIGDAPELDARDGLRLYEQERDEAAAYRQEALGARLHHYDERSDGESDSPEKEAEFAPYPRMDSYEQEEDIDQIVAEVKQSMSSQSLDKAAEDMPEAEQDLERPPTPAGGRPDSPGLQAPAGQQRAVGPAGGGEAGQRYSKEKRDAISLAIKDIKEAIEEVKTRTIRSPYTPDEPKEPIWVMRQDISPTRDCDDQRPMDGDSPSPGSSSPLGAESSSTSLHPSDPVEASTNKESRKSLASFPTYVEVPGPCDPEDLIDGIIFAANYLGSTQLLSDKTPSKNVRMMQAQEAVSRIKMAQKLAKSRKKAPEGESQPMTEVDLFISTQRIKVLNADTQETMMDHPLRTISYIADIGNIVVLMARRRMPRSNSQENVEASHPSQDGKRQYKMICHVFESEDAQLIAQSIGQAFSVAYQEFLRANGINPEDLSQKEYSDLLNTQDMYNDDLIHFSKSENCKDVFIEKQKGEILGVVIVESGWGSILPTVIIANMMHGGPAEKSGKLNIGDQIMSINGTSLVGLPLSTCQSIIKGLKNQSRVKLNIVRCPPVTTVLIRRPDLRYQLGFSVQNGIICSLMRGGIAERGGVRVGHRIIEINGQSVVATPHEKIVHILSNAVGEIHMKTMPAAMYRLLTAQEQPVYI

[17] = target: T10, Voltage-gated N-type calcium channel alpha-1B subunit/Amyloid beta A4 precursor protein-binding family A member 1; type: protein assay; remark: listed apart in the source

Chain of DNA dC->dU-editing enzyme APOBEC-3A (P31941 whole entry): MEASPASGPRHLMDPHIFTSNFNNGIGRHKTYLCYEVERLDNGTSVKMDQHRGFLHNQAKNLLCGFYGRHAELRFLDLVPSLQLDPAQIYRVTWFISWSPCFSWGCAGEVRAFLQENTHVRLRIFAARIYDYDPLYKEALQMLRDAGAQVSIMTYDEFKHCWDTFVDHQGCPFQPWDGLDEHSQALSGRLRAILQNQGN

Structure (SMILES): COC(=O)c1ccccc1NC(=O)c1cc[n+](C)cc1
- IC50 [1]: 3.62 µM (active)
- IC50 [2]: 4.04 µM (active)

Structure (SMILES): N=c1c(C(=O)NCC2CCCO2)cc2c(=O)n3ccccc3nc2n1Cc1cccnc1 (centres undefined)
- EC50 [3]: 17.1 µM (active)
- IC50 (Bcl-2-like protein 10): > 25 µM (inactive)
- EC50 [4]: 12.2 µM (active)

Structure (SMILES): CC1Cc2ccccc2N1S(=O)(=O)c1cccc2nsnc12 (centres undefined)
- IC50 (Coagulation factor XII): > 50 µM (inactive)

Structure (SMILES): COc1ccccc1N(C)S(=O)(=O)c1ccc(Cl)c(C(=O)NNC(=O)c2ccccc2O)c1
- EC50 [5]: > 100 µM (inactive)
- EC50 [6]: 11.5 µM (active)
- EC50 [7]: 15.7 µM (active)
- EC50 [8]: 26.5 µM (active)

Structure (SMILES): C=CCNCC(=O)N1N=C(c2ccc3ccccc3c2)CC1c1ccc(OC)cc1 (centres undefined)
- CC50 [9]: 14.9 µM (active)
- CC50 [10]: 25.5 µM (active)
- CC50 [11]: 23.5 µM (active)
- CC50 [12]: > 20 µM (active)
- IC50 (cells): 18.1 µM (active)

Structure (SMILES): Oc1cccc(Nc2ccccc2)c1
- IC50 [13]: 62.6 µM (active)
- AC50 (Cytochrome P450 3A4): 15.8 µM (inconclusive)

Structure (SMILES): C=CCNS(=O)(=O)c1nc(C)c(Cl)c(C)c1C#N
- IC50 (Bcl-2-like protein 10): > 100 µM (inactive)

Structure (SMILES): CCOc1ccc(/N=C2/SCCCN2C)cc1
- IC50 [1]: 2.19 µM (active)
- IC50 [2]: 2.35 µM (active)
- IC50 [14]: 17 µM (active)

Structure (SMILES): O=C(NC1CCCCC1)NC1CCCCC1 [1,3-DICYCLOHEXYLUREA]
- AC50 (Cytochrome P450 3A4): 3.16 µM (inconclusive)

Structure (SMILES): CCOC(=O)C[n+]1c(C)n(C)c2cc(Cl)c(Cl)cc21
- IC50 [1]: 2.26 µM (active)
- IC50 [2]: 2.2 µM (active)

Structure (SMILES): CCOc1ccccc1-n1c(SCC(N)=O)nnc1-c1ccc(O)cc1
- EC50 [15]: > 50 µM (not active)

Structure (SMILES): COc1ccc(S(=O)(=O)N(CC(=O)NCC2CCCO2)c2ccccc2)cc1OC (centres undefined)
- EC50 [15]: > 50 µM (not active)

Structure (SMILES): N#CCC(=O)N/N=C/c1cn(Cc2ccc(Cl)c(Cl)c2)c2ccccc12
- IC50 [16]: > 56.8 µM (not active)
- IC50 [17]: > 50 µM (inactive)

Structure (SMILES): CC1(C)CC2C1CCC1(C)OC2(C)CCC1O (centres undefined) [3,7-EPOXYCARYOPHYLLAN-6-OL]
- AC50 (Cytochrome P450 3A4): 25.1 µM (inconclusive)

Structure (SMILES): Cc1cc(NS(=O)(=O)c2ccc(NC(=O)CCN3C(=O)c4ccccc4C3=O)cc2)no1
- EC50 [15]: > 50 µM (not active)

Structure (SMILES): O=C(N/N=C/c1c(F)cccc1Cl)c1cc(C2CC2)[nH]n1
- EC50 [5]: > 100 µM (inactive)
- EC50 [6]: 21.5 µM (active)
- EC50 [7]: 40.6 µM (active)
- EC50 [8]: 41.3 µM (active)
